Counter-ions that a name gives are not always drawn.
What was measured:
[1] = test system: Tyk2 kinase activity on STAT4; assay: pSTAT4 cell assay (MSD, NK92 cells); assay type: cell-based; details: compounds 1 hr, stimulated 15 minutes
Outline: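 Cells natively expressing STAT4 and Tyk2 (NK92) are serum-starved to lower background phosphorylation, exposed to compound for 1 hr over a 10-point four-fold series starting at 10 μM, and stimulated with 30 ng/mL IL2 for 15 minutes. Phosphorylation is quantified on MSD with anti-STAT4 antibodies.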

JH2 domain of human Tyk2 = biological target: T1, JH2 domain of human Tyk2 (Homo sapiens, UniProt P29597); assay: JH2 biochemical assay (TR-FRET probe displacement); assay type: binding; details: JH2 biochemical assay
T1 construct: 10×His-tagged TYK2 JH2 domain (amino acid 575-876)
T1 sequence (P29597 575-876): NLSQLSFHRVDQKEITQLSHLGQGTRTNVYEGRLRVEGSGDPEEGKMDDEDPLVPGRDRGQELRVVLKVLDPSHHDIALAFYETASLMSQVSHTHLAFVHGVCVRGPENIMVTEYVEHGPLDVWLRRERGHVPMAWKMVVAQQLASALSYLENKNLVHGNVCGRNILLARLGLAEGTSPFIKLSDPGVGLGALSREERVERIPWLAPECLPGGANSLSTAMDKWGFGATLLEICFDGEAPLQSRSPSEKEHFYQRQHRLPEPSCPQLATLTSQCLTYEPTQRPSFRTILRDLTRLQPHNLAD
Outline: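 A probe-displacement TR-FRET readout: compounds, tested in 3-fold, 10-point dilutions starting at […], compete with 2 nM tracer for 2 nM His-tagged JH2 (residues 575-876) detected by 0.1 nM Tb-anti-His over 60 min. IC50 comes from 4-parameter fits of normalized 520/495 nm ratios.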

SMILES: CC(=O)Nc1cc2c(cn1)C1(CC1)CN2c1cc([C@H]2C[C@H](C#N)C2)nc(C(C)(F)F)n1 [Example 75, N-(1′-(6-((1r,3r)-3-cyanocyclobutyl)-2-(1,1-difluoroethyl)pyrimidin-4-yl)-1′,2′-dihydrospiro[cyclopropane-1,3′-pyrrolo[3,2-c]pyridin]-6′-yl)acetamide or N-(1′-(6-((1s,3s)-3-cyanocyclobutyl)-2-(1,1-difluoroethyl)pyrimidin-4-yl)-1′,2′-dihydrospiro[cyclopropane-1,3′-pyrrolo[3,2-c]pyridin]-6′-yl)acetamide]
- IC50 [1]: 100 to 1000 nM
- IC50 (JH2 domain of human Tyk2): ≤ 10 nM

SMILES: CC(=O)Nc1cc2c(cn1)C1(CC1)CN2c1nc(C(C)(F)F)cs1 [Example 79, N-(1′-(4-(1,1-difluoroethyl)thiazol-2-yl)-1′,2′-dihydrospiro[cyclopropane-1,3′-pyrrolo[3,2-c]pyridin]-6′-yl)acetamide trifluoroacetate]
- IC50 [1]: ≥ 1000 nM
- IC50 (JH2 domain of human Tyk2): 10 to 100 nM

SMILES: CC(=O)Nc1cc2c(cn1)C1(CC1)CN2c1nc(C)c(C)s1 [Example 80, N-(1′-(4,5-dimethylthiazol-2-yl)-1′,2′-dihydrospiro[cyclopropane-1,3′-pyrrolo[3,2-c]pyridin]-6′-yl)acetamide]
- IC50 [1]: ≥ 1000 nM
- IC50 (JH2 domain of human Tyk2): 10 to 100 nM

SMILES: CC(=O)Nc1cc2c(cn1)C1(CC1)CN2c1nc(C2CCCOC2)cs1 (stereo not drawn) [Example 81, N-(1′-(4-(tetrahydro-2H-pyran-3-yl)thiazol-2-yl)-1′,2′-dihydrospiro[cyclopropane-1,3′-pyrrolo[3,2-c]pyridin]-6′-yl)acetamide trifluoroacetate]
- IC50 [1]: ≥ 1000 nM
- IC50 (JH2 domain of human Tyk2): 10 to 100 nM

SMILES: CC(=O)Nc1cc2c(cn1)C1(CC1)CN2c1nc(C2CCOC2)c(C)s1 (stereo not drawn) [Example 82, N-(1′-(5-methyl-4-(tetrahydrofuran-3-yl)thiazol-2-yl)-1′,2′-dihydrospiro[cyclopropane-1,3′-pyrrolo[3,2-c]pyridin]-6′-yl)acetamide trifluoroacetate]
- IC50 [1]: 100 to 1000 nM
- IC50 (JH2 domain of human Tyk2): ≤ 10 nM

SMILES: COCCOc1cc(N2CC3(CC3)c3cnc(NC(C)=O)cc32)nc(C(C)(F)F)c1 [Example 86, N-(1′-(6-(1,1-difluoroethyl)-4-(2-methoxyethoxy)pyridin-2-yl)-1′,2′-dihydrospiro[cyclopropane-1,3′-pyrrolo[3,2-c]pyridin]-6′-yl)acetamide]
- IC50 [1]: ≤ 10 nM
- IC50 (JH2 domain of human Tyk2): ≤ 10 nM

SMILES: CCC(=O)Nc1cc2c(cn1)C1(CC1)CN2c1ccnc(C(C)(F)F)n1 [Example 89, N-(1′-(2-(1,1-difluoroethyl)pyrimidin-4-yl)-1′,2′-dihydrospiro[cyclopropane-1,3′-pyrrolo[3,2-c]pyridin]-6′-yl)propionamide]
- IC50 [1]: 100 to 1000 nM
- IC50 (JH2 domain of human Tyk2): ≤ 10 nM

SMILES: COCCC(=O)Nc1cc2c(cn1)C1(CC1)CN2c1ccnc(C(C)(F)F)n1 [Example 91, N-(1′-(2-(1,1-difluoroethyl)pyrimidin-4-yl)-1′,2′-dihydrospiro[cyclopropane-1,3′-pyrrolo[3,2-c]pyridin]-6′-yl)-3-methoxypropanamide]
- IC50 [1]: ≥ 1000 nM
- IC50 (JH2 domain of human Tyk2): 10 to 100 nM

SMILES: CC(=O)Nc1cc2c(cn1)C1(CC1)CN2c1cccc(S(C)(=O)=O)n1 [Example 93, N-(1′-(6-(methylsulfonyl)pyridin-2-yl)-1′,2′-dihydrospiro[cyclopropane-1,3′-pyrrolo[3,2-c]pyridin]-6′-yl)acetamide]
- IC50 [1]: ≤ 10 nM
- IC50 (JH2 domain of human Tyk2): ≤ 10 nM

SMILES: CC(=O)Nc1cc2c(cn1)C1(CC1)CN2c1ccccn1 [Example 94, N-(1′-(pyridin-2-yl)-1′,2′-dihydrospiro[cyclopropane-1,3′-pyrrolo[3,2-c]pyridin]-6′-yl)acetamide]
- IC50 [1]: ≥ 1000 nM
- IC50 (JH2 domain of human Tyk2): 100 to 1000 nM

SMILES: CC(=O)Nc1cc2c(cn1)C1(CC1)CN2c1cc(C)cc(C2(O)CCOC2)n1 (stereo not drawn) [Example 95, N-(1′-(6-(3-hydroxytetrahydrofuran-3-yl)-4-methylpyridin-2-yl)-1′,2′-dihydrospiro[cyclopropane-1,3′-pyrrolo[3,2-c]pyridin]-6′-yl)acetamide]
- IC50 [1]: 100 to 1000 nM
- IC50 (JH2 domain of human Tyk2): ≤ 10 nM

SMILES: CC(=O)Nc1cc2c(cn1)C1(CC1)CN2c1cc(C)nc(C(C)S(C)(=O)=O)n1 (stereo not drawn) [Example 97, N-(1′-(6-methyl-2-(1-(methylsulfonyl)ethyl)pyrimidin-4-yl)-1′,2′-dihydrospiro[cyclopropane-1,3′-pyrrolo[3,2-c]pyridin]-6′-yl)acetamide]
- IC50 [1]: 100 to 1000 nM
- IC50 (JH2 domain of human Tyk2): ≤ 10 nM

SMILES: CC(=O)Nc1cc2c(cn1)C1(CC1)CN2c1cc(C)nc(C2CCS(=O)(=O)C2)n1 (stereo not drawn) [Example 98, N-(1′-(2-(1,1-dioxidotetrahydrothiophen-3-yl)-6-methylpyrimidin-4-yl)-1′,2′-dihydrospiro[cyclopropane-1,3′-pyrrolo[3,2-c]pyridin]-6′-yl)acetamide]
- IC50 [1]: ≥ 1000 nM
- IC50 (JH2 domain of human Tyk2): 10 to 100 nM

SMILES: COCCOc1ccnc(N2CC3(CC3)c3cnc(NC(C)=O)cc32)n1 [Example 99, N-(1′-(4-(2-methoxyethoxy)pyrimidin-2-yl)-1′,2′-dihydrospiro[cyclopropane-1,3′-pyrrolo[3,2-c]pyridin]-6′-yl)acetamide]
- IC50 [1]: ≥ 1000 nM
- IC50 (JH2 domain of human Tyk2): 10 to 100 nM

SMILES: CC(=O)Nc1cc2c(cn1)C1(CC1)CN2c1cc(C)nc(-n2cccn2)n1 [Example 100, N-(1′-(6-methyl-2-(1H-pyrazol-1-yl)pyrimidin-4-yl)-1′,2′-dihydrospiro[cyclopropane-1,3′-pyrrolo[3,2-c]pyridin]-6′-yl)acetamide]
- IC50 [1]: ≥ 1000 nM
- IC50 (JH2 domain of human Tyk2): 10 to 100 nM

SMILES: CC(=O)Nc1cc2c(cn1)C1(CC1)CN2c1cncc(C(C)(F)F)n1 [Example 101, N-(1′-(6-(1,1-difluoroethyl)pyrazin-2-yl)-1′,2′-dihydrospiro[cyclopropane-1,3′-pyrrolo[3,2-c]pyridin]-6′-yl)acetamide]
- IC50 [1]: 100 to 1000 nM
- IC50 (JH2 domain of human Tyk2): ≤ 10 nM

SMILES: CC(=O)Nc1cc2c(cn1)C1(CC1)CN2c1cc(C)nc(C2CCOC2)n1 (stereo not drawn) [Example 103, N-(1′-(6-methyl-2-(tetrahydrofuran-3-yl)pyrimidin-4-yl)-1′,2′-dihydrospiro[cyclopropane-1,3′-pyrrolo[3,2-c]pyridin]-6′-yl)acetamide]
- IC50 [1]: 100 to 1000 nM
- IC50 (JH2 domain of human Tyk2): ≤ 10 nM

SMILES: COC1(c2nc(C)cc(N3CC4(CC4)c4cnc(NC(C)=O)cc43)n2)CCC1 [Example 104, N-(1′-(2-(1-methoxycyclobutyl)-6-methylpyrimidin-4-yl)-1′,2′-dihydrospiro[cyclopropane-1,3′-pyrrolo[3,2-c]pyridin]-6′-yl)acetamide]
- IC50 [1]: 100 to 1000 nM
- IC50 (JH2 domain of human Tyk2): ≤ 10 nM

SMILES: CC(=O)Nc1cc2c(cn1)C1(CC1)CN2c1cc(C)nc(N2CCCCC2)n1 [Example 113, N-(1′-(6-methyl-2-(piperidin-1-yl)pyrimidin-4-yl)-1′,2′-dihydrospiro[cyclopropane-1,3′-pyrrolo[3,2-c]pyridin]-6′-yl)acetamide]
- IC50 [1]: ≥ 1000 nM
- IC50 (JH2 domain of human Tyk2): 10 to 100 nM

SMILES: CC(=O)Nc1cc2c(cn1)C1(CC1)CN2c1cc(C)nc(N2CCCC2)n1 [Example 114, N-(1′-(6-methyl-2-(pyrrolidin-1-yl)pyrimidin-4-yl)-1′,2′-dihydrospiro[cyclopropane-1,3′-pyrrolo[3,2-c]pyridin]-6′-yl)acetamide]
- IC50 [1]: 100 to 1000 nM
- IC50 (JH2 domain of human Tyk2): 10 to 100 nM

SMILES: CC(=O)Nc1cc2c(cn1)C1(CC1)CN2c1cc(C)nc(N(C)C)n1 [Example 116, N-(1′-(2-(dimethylamino)-6-methylpyrimidin-4-yl)-1′,2′-dihydrospiro[cyclopropane-1,3′-pyrrolo[3,2-c]pyridin]-6′-yl)acetamide]
- IC50 [1]: ≥ 1000 nM
- IC50 (JH2 domain of human Tyk2): 10 to 100 nM

SMILES: CC(=O)Nc1cc2c(cn1)C1(CC1)CN2c1cc(C)nc(C2CCCN(S(C)(=O)=O)C2)n1 (stereo not drawn) [Example 119, N-(1′-(6-methyl-2-(1-(methylsulfonyl)piperidin-3-yl)pyrimidin-4-yl)-1′,2′-dihydrospiro[cyclopropane-1,3′-pyrrolo[3,2-c]pyridin]-6′-yl)acetamide]
- IC50 [1]: 100 to 1000 nM
- IC50 (JH2 domain of human Tyk2): 10 to 100 nM

SMILES: CC(=O)Nc1cc2c(cn1)C1(CC1)CN2c1cc(C)nc(C2CCN(C(C)=O)CC2)n1 [Example 120, N-(1′-(2-(1-acetylpiperidin-4-yl)-6-methylpyrimidin-4-yl)-1′,2′-dihydrospiro[cyclopropane-1,3′-pyrrolo[3,2-c]pyridin]-6′-yl)acetamide]
- IC50 [1]: ≥ 1000 nM
- IC50 (JH2 domain of human Tyk2): 100 to 1000 nM

SMILES: CC(=O)Nc1cc2c(cn1)C1(CC1)CN2c1cc(C)nc(C2CCN(S(C)(=O)=O)CC2)n1 [Example 122, N-(1′-(6-methyl-2-(1-(methylsulfonyl)piperidin-4-yl)pyrimidin-4-yl)-1′,2′-dihydrospiro[cyclopropane-1,3′-pyrrolo[3,2-c]pyridin]-6′-yl)acetamide]
- IC50 [1]: ≥ 1000 nM
- IC50 (JH2 domain of human Tyk2): 100 to 1000 nM

SMILES: CC(=O)Nc1cc2c(cn1)C1(CC1)CN2c1cc(C)nc(C2CC2C)n1 (stereo not drawn) [Example 123, N-(1′-(6-methyl-2-(2-methylcyclopropyl)pyrimidin-4-yl)-1′,2′-dihydrospiro[cyclopropane-1,3′-pyrrolo[3,2-c]pyridin]-6′-yl)acetamide]
- IC50 [1]: 100 to 1000 nM
- IC50 (JH2 domain of human Tyk2): ≤ 10 nM

SMILES: CC(=O)Nc1cc2c(cn1)C1(CC1)CN2c1cc(C)nc(CO)n1 [Example 126, N-(1′-(2-(hydroxymethyl)-6-methylpyrimidin-4-yl)-1′,2′-dihydrospiro[cyclopropane-1,3′-pyrrolo[3,2-c]pyridin]-6′-yl)acetamide]
- IC50 [1]: ≥ 1000 nM
- IC50 (JH2 domain of human Tyk2): 10 to 100 nM

SMILES: CC(=O)Nc1cc2c(cn1)C1(CC1)CN2c1nc(C(C)(F)F)nc(C)c1F [Example 127, N-(1′-(2-(1,1-difluoroethyl)-5-fluoro-6-methylpyrimidin-4-yl)-1′,2′-dihydrospiro[cyclopropane-1,3′-pyrrolo[3,2-c]pyridin]-6′-yl)acetamide]
- IC50 [1]: 100 to 1000 nM
- IC50 (JH2 domain of human Tyk2): ≤ 10 nM
